According to patent US20200369728A1, “PEPTIDOMIMETIC MACROCYCLES AND USES THEREOF” (Aileron Therapeutics, Inc., priority 2015, published 2020):
Bridge positions count the residues as written; N and C are the ends. Square brackets hold non-standard residues; d marks the D form. Peptide text beside a SMILES is read from it. R8 = C=CCCCCCC[C@@](C)(N)C(=O)O; S5 = C=CCCC[C@](C)(N)C(=O)O; Aib = CC(C)(N)C(=O)O

Tests used:
Caspase 3 = Caspase 3 detection assay in SJSA1 cells; type: cell-based; conditions: SJSA1, 48 h, Caspase 3 activation over DMSO-treated cells
SJSA-1 cells = test: Cell lysis by peptidomimetic macrocycles (LDH release); type: cell-based; conditions: SJSA-1, 1 h
Outline: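 SJSA-1 cells plated the day before, switched to RPMI with 1% FBS, then exposed 1 h at 37 °C to macrocycle at final 50 μM to 6.25 μM in 0.5% DMSO. LDH released into the supernatant was measured by kit. Controls: 0.5% DMSO (non-lytic), 10 μM melittin and 1% Triton X-100 (lytic).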

RKO = test: Cell viability assay (MTT), RKO; conditions: read-out: RKO EC50 (72 h)

Row | Compound | caspase 0.3 μM (Caspase 3) | caspase 3 μM (Caspase 3) | caspase 10 μM (Caspase 3) | caspase 30 μM (Caspase 3) | 6.25 μM % Lysed cells (1 h LDH) (SJSA-1 cells) [%] | 25 μM % Lysed cells (1 h LDH) (SJSA-1 cells) [%] | 50 μM % Lysed cells (1 h LDH) (SJSA-1 cells) [%] | EC50 (RKO) [µM] | caspase 1 μM (Caspase 3; 1 μM)
1 | CC[C@H](C)[C@H](NC(=O)[C@H](C)NC(=O)[C@H](C)NC(=O)[C@]1(C)CCCC=CCCCCCC[C@@](C)(NC(=O)[C@H](Cc2ccccc2)NC(=O)[C@@H](NC(=O)[C@H](CC(C)C)NC(C)=O)[C@@H](C)O)C(=O)N[C@@H](C)C(=O)N[C@@H](Cc2ccc(O)cc2)C(=O)N[C@@H](Cc2c[nH]c3ccccc23)C(=O)N[C@@H](C)C(=O)N[C@@H](CCC(N)=O)C(=O)N[C@@H](CC(C)C)C(=O)N1)C(=O)N[C@H](CC(C)C)C(N)=O (single isomer, unassigned) [compound 81] | 1 | 1 | 6 | 21 | 1 | 0 | 0 | 5 to 15 | 
2 | CC(=O)N[C@@H](CC(C)C)C(=O)N[C@H](C(=O)N[C@@H](Cc1ccccc1)C(=O)N[C@]1(C)CCCCCCC=CCCC[C@@](C)(C(=O)N[C@@H](C)C(=O)N[C@H](C(=O)NCC(N)=O)C(C)C)NC(=O)[C@H](CC(C)C)NC(=O)[C@H](CCC(N)=O)NC(=O)[C@H](C)NC(=O)[C@H](Cc2c[nH]c3ccccc23)NC(=O)[C@H](Cc2ccc(O)cc2)NC(=O)[C@H](C)NC1=O)[C@@H](C)O (single isomer, unassigned) [compound 109] |  | 4 | 16 | 25 |  |  |  | < 5 | 
3 | CC(=O)N[C@@H](CC(C)C)C(=O)N[C@H](C(=O)N[C@@H](Cc1ccccc1)C(=O)N[C@]1(C)CCCCCCC=CCCC[C@@](C)(C(=O)N[C@@H](CO)C(=O)N[C@@H](CC(C)C)C(=O)N[C@@H](C)C(N)=O)NC(=O)[C@H](CC(C)C)NC(=O)[C@H](CCC(N)=O)NC(=O)[C@H](C)NC(=O)[C@H](Cc2c[nH]c3ccccc23)NC(=O)[C@H](Cc2ccc(O)cc2)NC(=O)[C@H](C)NC1=O)[C@@H](C)O (single isomer, unassigned) [compound 118] | 1 | 2 | 18 | 27 | 4 | 2 | 4 | < 5 | 
4 | CC(=O)N[C@@H](CC(C)C)C(=O)N[C@H](C(=O)N[C@@H](Cc1ccccc1)C(=O)N[C@]1(C)CCCCCCC=CCCC[C@@](C)(C(=O)N[C@@H](CO)C(=O)N[C@@H](Cc2c[nH]c3ccccc23)C(=O)N[C@@H](C)C(N)=O)NC(=O)[C@H](CC(C)C)NC(=O)[C@H](CCC(N)=O)NC(=O)[C@H](C)NC(=O)[C@H](Cc2c[nH]c3ccccc23)NC(=O)[C@H](Cc2ccc(O)cc2)NC(=O)[C@H](C)NC1=O)[C@@H](C)O (single isomer, unassigned) [compound 120] | 2 | 11 | 20 | 30 | 0 | 0 | 6 | < 5 | 
5 | CC(=O)N[C@@H](CC(C)C)C(=O)N[C@H](C(=O)N[C@@H](Cc1ccccc1)C(=O)N[C@]1(C)CCCCCCC=CCCC[C@@](C)(C(=O)N[C@@H](CO)C(=O)N[C@@H](C)C(=O)N[C@@H](C)C(N)=O)NC(=O)[C@H](CC2CCCCC2)NC(=O)[C@H](CCC(N)=O)NC(=O)[C@H](C)NC(=O)[C@H](Cc2c[nH]c3ccccc23)NC(=O)[C@H](Cc2ccc(O)cc2)NC(=O)[C@H](CCC(=O)O)NC1=O)[C@@H](C)O (single isomer, unassigned) [compound 148] | 1 | 11 | 23 | 31 | 0 | −1 | 0 | 15 to 30 | 
6 | CC(=O)N[C@@H](CC(C)C)C(=O)N[C@H](C(=O)N[C@@H](Cc1ccccc1)C(=O)N[C@]1(C)CCCCCCC=CCCC[C@@](C)(C(=O)N[C@@H](CO)C(=O)N[C@@H](C)C(=O)N[C@@H](C)C(N)=O)NC(=O)[C@H](C2CCCC2)NC(=O)[C@H](CCC(N)=O)NC(=O)[C@H](C)NC(=O)[C@H](Cc2c[nH]c3ccccc23)NC(=O)[C@H](Cc2ccc(O)cc2)NC(=O)[C@H](CCC(=O)O)NC1=O)[C@@H](C)O (single isomer, unassigned) [compound 150] |  |  |  |  | −1 | 0 | 2 | 15 to 30 | 
7 | CC(=O)N[C@@H](C)C(=O)N[C@@H](C)C(=O)N[C@@H](CC(C)C)C(=O)N[C@H](C(=O)N[C@@H](Cc1ccccc1)C(=O)N[C@]1(C)CCCCCCC=CCCC[C@@](C)(C(=O)N[C@@H](CO)C(=O)N[C@@H](C)C(=O)N[C@@H](C)C(=O)N[C@@H](C)C(=O)N[C@H](C)C(N)=O)NC(=O)[C@H](CC2CCC2)NC(=O)[C@H](CCC(N)=O)NC(=O)[C@H](C)NC(=O)[C@H](Cc2c[nH]c3ccccc23)NC(=O)[C@H](Cc2ccc(O)cc2)NC(=O)[C@H](CCC(=O)O)NC1=O)[C@@H](C)O (single isomer, unassigned) [compound 358] | 1 | 3 | 6 | 24 |  |  |  | 15 to 30 | 2
8 | CC(=O)N[C@@H](CC(C)C)C(=O)N[C@H](C(=O)N[C@@H](Cc1ccccc1)C(=O)N[C@]1(C)CCCCCCC=CCCC[C@@](C)(C(=O)N[C@@H](CO)C(=O)N[C@@H](C)C(=O)NC(C)(C)C(N)=O)NC(=O)[C@H](CC(C)C)NC(=O)[C@H](CCC(N)=O)NC(=O)[C@H](C)NC(=O)[C@H](Cc2c[nH]c3ccccc23)NC(=O)[C@H](Cc2ccc(O)cc2)NC(=O)[C@H](C)NC1=O)[C@@H](C)O [compound 10] (Ac-LTF[R8]AYWAQL[S5]SA[Aib]-NH2; staple 4-11) | 1 | 1 | 17 | 32 |  |  |  | 5 to 15 | 
9 | CC(=O)N[C@@H](CC(C)C)C(=O)N[C@H](C(=O)N[C@@H](Cc1ccccc1)C(=O)N[C@]1(C)CCCCCCC=CCCC[C@@](C)(C(=O)N[C@@H](C)C(=O)N[C@@H](Cc2c[nH]cn2)C(=O)N[C@@H](Cc2ccccc2)C(=O)N[C@@H](C)C(N)=O)NC(=O)[C@H](CC(C)C)NC(=O)[C@H](CCC(N)=O)NC(=O)[C@H](C)NC(=O)[C@H](Cc2c[nH]c3ccccc23)NC(=O)[C@H](Cc2ccc(O)cc2)NC(=O)[C@H](C)NC1=O)[C@@H](C)O [compound 50] (Ac-LTF[R8]AYWAQL[S5]AHFA-NH2; staple 4-11) |  | 8 | 29 | 29 |  |  |  | < 5 | 
10 | CC(C)C[C@H](NC(=O)CN(C)C)C(=O)N[C@H](C(=O)N[C@@H](Cc1ccccc1)C(=O)N[C@]1(C)CCCCCCC=CCCC[C@@](C)(C(=O)N[C@@H](CO)C(=O)N[C@@H](C)C(=O)N[C@@H](C)C(N)=O)NC(=O)[C@H](CC2CCC2)NC(=O)[C@H](CCC(N)=O)NC(=O)[C@H](C)NC(=O)[C@H](Cc2c[nH]c3ccccc23)NC(=O)[C@H](Cc2ccc(O)cc2)NC(=O)[C@H](CCC(=O)O)NC1=O)[C@@H](C)O [compound 435] |  |  |  |  |  |  |  | 15 to 30 | 
11 | CC(C)C[C@H](NC(=O)CN(C)C)C(=O)N[C@H](C(=O)N[C@@H](Cc1ccccc1)C(=O)N[C@]1(C)CCCCCC/C=C/CCC[C@@](C)(C(=O)N[C@@H](C)C(=O)N[C@@H](C)C(=O)N[C@@H](C)C(=O)N[C@@H](C)C(=O)N[C@@H](C)C(=O)N[C@H](C)C(N)=O)NC(=O)[C@H](CC(C)C)NC(=O)[C@H](CCC(N)=O)NC(=O)[C@H](C)NC(=O)[C@H](Cc2c[nH]c3ccccc23)NC(=O)[C@H](Cc2ccc(O)cc2)NC(=O)[C@H](C)NC1=O)[C@@H](C)O [compound 437] |  |  |  |  |  |  |  | < 5 | 
12 | CCCC[C@H](NC(=O)[C@H](C)NC(=O)[C@H](C)NC(=O)[C@]1(C)CCCCCCCCCCC[C@@](C)(NC(=O)[C@H](Cc2ccccc2)NC(=O)[C@@H](NC(=O)[C@H](CC(C)C)NC(C)=O)[C@@H](C)O)C(=O)N[C@@H](C)C(=O)N[C@@H](Cc2ccc(O)cc2)C(=O)N[C@@H](Cc2c[nH]c3ccccc23)C(=O)N[C@@H](C)C(=O)N[C@@H](CCC(N)=O)C(=O)N[C@@H](CC(C)C)C(=O)N1)C(=O)N[C@@H](C)C(N)=O [compound 444] |  |  |  |  |  |  |  | < 5 | 
13 | CC(=O)N[C@@H](CC(C)C)C(=O)N[C@H](C(=O)N[C@@H](Cc1ccccc1)C(=O)N[C@]1(C)CCCCCCCCCCC[C@@](C)(C(=O)N[C@@H](C)C(=O)N[C@@H](C)C(=O)N[C@@H](C)C(=O)N[C@@H](C)C(=O)N[C@@H](C)C(=O)N[C@H](C)C(N)=O)NC(=O)[C@H](CC(C)C)NC(=O)[C@H](CCC(N)=O)NC(=O)[C@H](C)NC(=O)[C@H](Cc2c[nH]c3ccccc23)NC(=O)[C@H](Cc2ccc(O)cc2)NC(=O)[C@H](CCC(=O)O)NC1=O)[C@@H](C)O [compound 445] |  |  |  |  |  |  |  | 5 to 15 | 
